Test: Cell toxicity
Type: cell-based

C=C(C)[C@@H]1CC[C@]2(C(=O)O)CC[C@]3(C)[C@H](CC[C@@H]4[C@@]5(C)CC[C@H](OC(=O)CC(C)(C)C(=O)O)C(C)(C)[C@@H]5CC[C@]43C)[C@@H]12 [Bevirimat, 3-O-(3′,3′-dimethylsuccinyl)betulinic acid]
IC50: > 300 µM

From paper PMC3053071 (Bioorganic & medicinal chemistry letters, 2011)
